We go through four compounds from patent US5424308A, “Condensed pyrazole 3-oxo-propanenitrile derivatives” (Farmitalia Carlo Erba S.r.l., priority 1988, dated 1995).

One data set has as its system Pseudomonas aeruginosa. Briefly: Pseudomonas aeruginosa infection in Cyclophosphamide immunosuppressed mice. In kind it is in vivo. Particulars: for % survival: 10 mg/kg/i.p., 8 LD50 intravenously, 10 days after bacterial challenge; for effectiveness against Pseudomonas aeruginosa infection: Cyclophosphamide immunosuppressed mice, in words. On the procedure:
The experimental procedure to evaluate this activity is as follows: mice are immunosuppressed 4 days before the bacterial challenge by a single dose of 200 mg/kg of Cyclophosphamide given intraperitoneally. Tested compounds are administered i.p. on days +1 and +3 relative to Cyclophosphamide administration. Clinically isolated Pseudomonas aeruginosa is administered intravenously in amount of 8 LD50. Host resistance to infection is estimated by the number of mice surviving 10 days after the bacterial challenge.

The test system of the next data set is TU-5 tumor cells. Briefly: Macrophage cytotoxic activity towards TU-5 tumor cells (peritoneal macrophages of i.p. treated mice, MTT). In kind it is cell-based. The settings on record: Effector:Target 5:1; 10 mg/kg/i.p.; 7 days before cell collection; 48 hours incubation. On the procedure: The experimental procedure to evaluate this activity is as follows: groups of 4 mice are treated i.p. with the tested compounds and then, seven days later, peritoneal cells are collected and plated for 2 hours at 37° C. After this period the walls are washed to eliminate the non adherent cells, tumor target cells are then added and the incubation prolonged for 48 hours. At the end of this period the target cells viability is evaluated by the MTT colorimetric method (Abstracts of VIII European Immunology Meeting, Zagreb, 1987, pag 94 n°2105) based on the optical density (OD) evaluation at 570 nm.
Percent specific cytotoxicity (%C) is calculated as % inhibition of TU-5 tumor cells (Immunology, 1984, 166, 251) growth using the following formula: [formula]
The following Table I summarizes the immunostimulating activity data of some representative compounds of the invention, obtained according to hereabove experimental procedure, towards TU-5 tumor cells.

`N#CC(C(=O)Nc1ccccc1)C(=O)c1nn(-c2ccccc2)c2c1Cc1ccccc1-2` (stereo not drawn) [FCE 25276, 2-cyano-3-(1,4-dihydro-1-phenyl-indeno[1,2-c]pyrazol-3-yl) -3-oxo-N-phenyl-propanamide]: in the data set with Pseudomonas aeruginosa, the “% survival” value is reported as 90% and the “effectiveness against Pseudomonas aeruginosa infection” value (“effectiveness” below) was “strongly effective”. For the same compound, the “Macrophage cytotoxic activity (% inhibition of TU-5 growth)” value in the data set on TU-5 tumor cells is on record as 93%.

For the compound `N#CC(C(=O)Nc1ccc(F)cc1)C(=O)c1nn(-c2ccccc2)c2c1Cc1ccccc1-2` (stereo not drawn) [FCE 25648, 2-cyano-N-(4-fluoro-phenyl)-3-(1,4-dihydro-1-phenyl-indeno[1,2-c]pyrazol-3-yl)-3-oxo-propanamide], in the data set on Pseudomonas aeruginosa, the “% survival” value was determined as 90% and the “effectiveness” value is “strongly effective”. For the same compound, the “Macrophage cytotoxic activity (% inhibition of TU-5 growth)” value in the data set on TU-5 tumor cells is 77%.

For the compound `N#CC(C(=O)Nc1cccc(Cl)c1)C(=O)c1nn(-c2ccccc2)c2c1Cc1ccccc1-2` (stereo not drawn) [FCE 25651, N-(3-chloro-phenyl)-2-cyano-3-(1,4-dihydro-1-phenyl-indeno[1,2-c]pyrazol-3-yl)-3-oxo-propanamide], in the data set on Pseudomonas aeruginosa, the “% survival” value was determined as 90% and the “effectiveness” value was “strongly effective”. Moreover, the “Macrophage cytotoxic activity (% inhibition of TU-5 growth)” value with TU-5 tumor cells is 79%.

As to `N#CC(C(=O)Nc1ccccc1)C(=O)c1nn(-c2ccccc2)c2c1sc1ccccc12` (stereo not drawn) [FCE 26047, 2-cyano-3-oxo-3-(1-phenyl-1H-benzothieno[3,2-c]pyrazol-3-yl)-N-phenyl-propanamide], in the data set with Pseudomonas aeruginosa, the “% survival” value is on record as 70% and the “effectiveness” value was “strongly effective”. For the same compound, the “Macrophage cytotoxic activity (% inhibition of TU-5 growth)” value in the data set with TU-5 tumor cells stood at 82%.
